Measurements as given in patent publication US8591876B2, “Methods of decreasing sebum production in the skin” (priority 2010, dated 2013).

What was measured:
human sebocytes (SEB-1) = test: Cytotoxicity to human sebocytes (SEB-1), Cell Titer-Blue Cell Viability Assay; format: cell-based; conditions: in reference to cells incubated with media alone
[1] = test system: normal human keratinocytes (NHEK); test: Cytotoxicity to normal human keratinocytes (NHEK), Cell Titer-Blue Cell Viability Assay; format: cell-based; conditions: in reference to cells incubated with media alone

In the case of N[C@@H](CCC(=O)N[C@@H](CSN=O)C(=O)NCC(=O)O)C(=O)O [GSNO, S-nitrogluthione], the “% SEB-1 Killed” value (human sebocytes (SEB-1); 0.12 mg/ml, 24 hr) is reported as 6%, the “% SEB-1 Killed” value (human sebocytes (SEB-1); 0.12 mg/ml, 48 hr) is reported as 11% and the “% SEB-1 Killed” value (human sebocytes (SEB-1); 0.12 mg/ml, 72 hr) is reported as 19%. The “% SEB-1 Killed” value (human sebocytes (SEB-1); 0.6 mg/ml, 24 hr) was 48%, the “% SEB-1 Killed” value (human sebocytes (SEB-1); 0.6 mg/ml, 48 hr) was 68% and the “% SEB-1 Killed” value (human sebocytes (SEB-1); 0.6 mg/ml, 72 hr) was 67%. For the same molecule, the “% SEB-1 Killed” value (human sebocytes (SEB-1); 1.2 mg/ml, 24 hr) was 85%, the “% SEB-1 Killed” value (human sebocytes (SEB-1); 1.2 mg/ml, 48 hr) was 97% and the “% SEB-1 Killed” value (human sebocytes (SEB-1); 1.2 mg/ml, 72 hr) was 98%. For the same molecule, the “% NHEK Killed” value ([1]; 0.12 mg/ml, 24 hr) was 4%, the “% NHEK Killed” value ([1]; 0.12 mg/ml, 48 hr) was 5% and the “% NHEK Killed” value ([1]; 0.12 mg/ml, 72 hr) was 15%. The “% NHEK Killed” value ([1]; 0.6 mg/ml, 24 hr) was 8%, the “% NHEK Killed” value ([1]; 0.6 mg/ml, 48 hr) was −11% and the “% NHEK Killed” value ([1]; 0.6 mg/ml, 72 hr) was −3%. For the same molecule, the “% NHEK Killed” value ([1]; 1.2 mg/ml, 24 hr) was 34%, the “% NHEK Killed” value ([1]; 1.2 mg/ml, 48 hr) was 53% and the “% NHEK Killed” value ([1]; 1.2 mg/ml, 72 hr) was 44%.
